Measured values as given in article PMC8286840, “Identifying SARS-CoV-2 antiviral compounds by screening for small molecule inhibitors of Nsp3 papain-like protease” (Biochemical Journal, 2021).
Counter-ions that a name gives are not always drawn. Like-named read-outs stand apart in the source and are kept apart here.

How the values were obtained:
[1] = biological target: T1, SARS-CoV-2 PLpro (nsp3 1564–1878) (Severe acute respiratory syndrome coronavirus 2, UniProt P0DTD1); assay: biochemical; set-up: FRET-quenched peptide (Pro3) cleavage by PLpro, 10 min pre-incubation, slope over 20 min, normalised to no-compound control; details: read-out: % of control remaining
[2] = biological target: T1, SARS-CoV-2 PLpro (nsp3 1564–1878); assay: biochemical; set-up: FRET-quenched peptide (Pro3) cleavage by PLpro, 10 min pre-incubation, slope over 20 min, normalised to no-compound control; details: read-out: % of control remaining; remark: listed apart in the source

`NC[C@@H](O)c1ccc(O)c(O)c1` [L(-)-Norepinephrine bitartrate] was tested, and the remaining activity at 1.25 µM ([1]; Well no.=58, low concentration screen) was 102% and the remaining activity at 3.75 µM ([2]; Well no.=58, high concentration screen) was 99.2%.

With `N[C@@H](CCCC(=O)O)C(=O)O` [L-2-aminoadipic acid] the remaining activity at 1.25 µM ([1]; Well no.=52, low concentration screen) was 97.1% and the remaining activity at 3.75 µM ([2]; Well no.=52, high concentration screen) was 97.4%.

`COC(=O)[C@@H](N)Cc1ccc(O)c(O)c1` [L-3,4-Dihydroxyphenylalanine methyl ester hydrochloride] gave a remaining activity at 1.25 µM ([1]; Well no.=541, low concentration screen) of 103% and a remaining activity at 3.75 µM ([2]; Well no.=541, high concentration screen) of 103%.

Compound `N[C@@H](Cc1ccc(O)c(O)c1)C(=O)O` [L-3,4-Dihydroxyphenylalanine] has a remaining activity at 1.25 µM ([1]; Well no.=634, low concentration screen) of 101% and a remaining activity at 3.75 µM ([2]; Well no.=634, high concentration screen) of 105%.

`N[C@@H](Cc1c[nH]c2ccc(O)cc12)C(=O)O` [L-5-Hydroxytryptophan] showed a remaining activity at 1.25 µM ([1]; Well no.=7409, low concentration screen) of 99.9% and a remaining activity at 3.75 µM ([2]; Well no.=7409, high concentration screen) of 104%.

For `c1ccc(CN2CCC3(CCCc4ccccc43)CC2)cc1` [L-687,384 hydrochloride], the remaining activity at 1.25 µM ([1]; Well no.=1123, low concentration screen) was 96.4% and the remaining activity at 3.75 µM ([2]; Well no.=1123, high concentration screen) was 97.2%.

`Ic1ccccc1CN[C@@H]1C2CCN(CC2)[C@@H]1C(c1ccccc1)c1ccccc1` [L-703,606 oxalate] showed a remaining activity at 1.25 µM ([1]; Well no.=964, low concentration screen) of 96.7% and a remaining activity at 3.75 µM ([2]; Well no.=964, high concentration screen) of 96%.

`FC(F)(F)c1cc(CO[C@H]2CCCN[C@H]2c2ccccc2)cc(C(F)(F)F)c1` [L-733,060 hydrochloride] was tested, and the remaining activity at 1.25 µM ([1]; Well no.=918, low concentration screen) was 99.8% and the remaining activity at 3.75 µM ([2]; Well no.=918, high concentration screen) was 103%.

For `Clc1ccc(N2CCN(Cc3c[nH]c4ncccc34)CC2)cc1` [L-745,870 hydrochloride], the remaining activity at 1.25 µM ([1]; Well no.=1108, low concentration screen) was 92.3% and the remaining activity at 3.75 µM ([2]; Well no.=1108, high concentration screen) was 95.9%.

`Ic1ccc(N2CCN(Cc3c[nH]c4ncccc34)CC2)cc1` [L-750,667 trihydrochloride] was tested, and the remaining activity at 1.25 µM ([1]; Well no.=774, low concentration screen) was 102% and the remaining activity at 3.75 µM ([2]; Well no.=774, high concentration screen) was 106%.

`COc1ccc(Br)cc1S(=O)(=O)NC(=O)/C=C/c1ccccc1Cc1ccc2ccccc2c1` [L-798106] was tested, and the remaining activity at 1.25 µM ([1]; Well no.=5661, low concentration screen) was 91.7% and the remaining activity at 3.75 µM ([2]; Well no.=5661, high concentration screen) was 95%.

Work on `C[C@H](N)C(=O)O` [L-Alanine] yielded a remaining activity at 1.25 µM ([1]; Well no.=7749, low concentration screen) of 95.2% and a remaining activity at 3.75 µM ([2]; Well no.=7749, high concentration screen) of 97.6%.

In the case of `OC[C@H](O)C(O)[C@@H](O)CO` [L-Arabinitol], the remaining activity at 1.25 µM ([1]; Well no.=6789, low concentration screen) is reported as 93.2% and the remaining activity at 3.75 µM ([2]; Well no.=6789, high concentration screen) is reported as 93.7%.

`N=C(N)NCCC[C@H](N)C(=O)O` [L-Arginine HCl] gave a remaining activity at 1.25 µM ([1]; Well no.=4987, low concentration screen) of 100% and a remaining activity at 3.75 µM ([2]; Well no.=4987, high concentration screen) of 100%.

Work on `N=C(N)NCCC[C@H](N)C(=O)O` [L-Arginine] yielded a remaining activity at 1.25 µM ([1]; Well no.=351, low concentration screen) of 97.9%, a remaining activity at 1.25 µM ([1]; Well no.=7205, low concentration screen) of 102% and a remaining activity at 3.75 µM ([2]; Well no.=351, high concentration screen) of 98.7%. For the same compound, the remaining activity at 3.75 µM ([2]; Well no.=7205, high concentration screen) was 99.2%.

`NC(=O)C[C@H](N)C(=O)O` [L-Asparagine] showed a remaining activity at 1.25 µM ([1]; Well no.=7741, low concentration screen) of 106% and a remaining activity at 3.75 µM ([2]; Well no.=7741, high concentration screen) of 108%.

`N[C@@H](CC(=O)O)C(=O)O` [L-Aspartic acid] gave a remaining activity at 1.25 µM ([1]; Well no.=248, low concentration screen) of 96.2%, a remaining activity at 3.75 µM ([2]; Well no.=248, high concentration screen) of 97.3% and a remaining activity at 3.75 µM ([2]; Well no.=7683, high concentration screen) of 106%.

`CCCCS(=N)(=O)CCC(N)C(=O)O` [L-Buthionine-sulfoximine] was tested, and the remaining activity at 1.25 µM ([1]; Well no.=315, low concentration screen) was 97.6% and the remaining activity at 3.75 µM ([2]; Well no.=315, high concentration screen) was 97.7%.

For `NC(N)=NOCC[C@H](N)C(=O)O` [L-Canavanine sulfate], the remaining activity at 1.25 µM ([1]; Well no.=382, low concentration screen) was 88.7% and the remaining activity at 3.75 µM ([2]; Well no.=382, high concentration screen) was 96.4%.

For `NCCC(=O)N[C@@H](Cc1cnc[nH]1)C(=O)O` [L-Carnosine], the remaining activity at 1.25 µM ([1]; Well no.=7017, low concentration screen) was 112% and the remaining activity at 3.75 µM ([2]; Well no.=7017, high concentration screen) was 111%.

For `NC(=O)NCCC[C@H](N)C(=O)O` [L-Citrulline], the remaining activity at 1.25 µM ([1]; Well no.=7159, low concentration screen) was 108% and the remaining activity at 3.75 µM ([2]; Well no.=7159, high concentration screen) was 102%.

`N[C@H]1CONC1=O` [L-Cycloserine] showed a remaining activity at 1.25 µM ([1]; Well no.=187, low concentration screen) of 104%, a remaining activity at 1.25 µM ([1]; Well no.=3185, low concentration screen) of 103% and a remaining activity at 3.75 µM ([2]; Well no.=187, high concentration screen) of 101%. The remaining activity at 3.75 µM ([2]; Well no.=3185, high concentration screen) was 102%.

Compound `N[C@@H](CS)C(=O)O` [L-Cysteine] has a remaining activity at 1.25 µM ([1]; Well no.=7783, low concentration screen) of 107% and a remaining activity at 3.75 µM ([2]; Well no.=7783, high concentration screen) of 109%.

In the case of `N[C@@H](CS(=O)O)C(=O)O` [L-Cysteinesulfinic Acid], the remaining activity at 1.25 µM ([1]; Well no.=128, low concentration screen) is reported as 93.4% and the remaining activity at 3.75 µM ([2]; Well no.=128, high concentration screen) is reported as 96.5%.

Compound `N[C@@H](CSSC[C@H](N)C(=O)O)C(=O)O` [L-Cystine] has a remaining activity at 1.25 µM ([1]; Well no.=6393, low concentration screen) of 104% and a remaining activity at 3.75 µM ([2]; Well no.=6393, high concentration screen) of 106%.

Compound `N[C@@H](Cc1ccc(O)c(O)c1)C(=O)O` [L-DOPA] has a remaining activity at 1.25 µM ([1]; Well no.=6861, low concentration screen) of 91.2% and a remaining activity at 3.75 µM ([2]; Well no.=6861, high concentration screen) of 92.3%.

`CNCC(O)c1ccc(O)c(O)c1` [L-Epinephrine (Bitartrate)] gave a remaining activity at 1.25 µM ([1]; Well no.=6952, low concentration screen) of 98% and a remaining activity at 3.75 µM ([2]; Well no.=6952, high concentration screen) of 94.1%.

`N[C@@H](CCC(=O)O)C(=O)O` [L-Glutamic acid hydrochloride] gave a remaining activity at 1.25 µM ([1]; Well no.=619, low concentration screen) of 102% and a remaining activity at 3.75 µM ([2]; Well no.=619, high concentration screen) of 97.5%.

Work on `N[C@@H](CCC(=O)O)C(=O)O` [L-Glutamic acid monosodium salt] yielded a remaining activity at 1.25 µM ([1]; Well no.=8573, low concentration screen) of 103% and a remaining activity at 3.75 µM ([2]; Well no.=8573, high concentration screen) of 106%.

Work on `NC(=O)CC[C@H](N)C(=O)O` [L-Glutamine] yielded a remaining activity at 1.25 µM ([1]; Well no.=715, low concentration screen) of 96.1%, a remaining activity at 1.25 µM ([1]; Well no.=6899, low concentration screen) of 93.9% and a remaining activity at 1.25 µM ([1]; Well no.=7743, low concentration screen) of 102%. For the same compound, the remaining activity at 3.75 µM ([2]; Well no.=715, high concentration screen) was 93.2%, the remaining activity at 3.75 µM ([2]; Well no.=6899, high concentration screen) was 92.3% and the remaining activity at 3.75 µM ([2]; Well no.=7743, high concentration screen) was 104%.

`O=C1O[C@H]([C@@H](O)CO)[C@H](O)[C@@H]1O` [L-Gulono-1,4-lactone] was tested, and the remaining activity at 1.25 µM ([1]; Well no.=6771, low concentration screen) was 102% and the remaining activity at 3.75 µM ([2]; Well no.=6771, high concentration screen) was 104%.

`N[C@@H](Cc1c[nH]cn1)C(=O)O` [L-Histidine hydrochloride] was tested, and the remaining activity at 1.25 µM ([1]; Well no.=422, low concentration screen) was 92.7% and the remaining activity at 3.75 µM ([2]; Well no.=422, high concentration screen) was 94.7%.

Compound `NC(=O)NCCCC[C@H](N)C(=O)O` [L-Homocitrulline] has a remaining activity at 1.25 µM [1] of 101% and a remaining activity at 3.75 µM [2] of 89.3%.

`N[C@@H](CCO)C(=O)O` [L-Homoserine] gave a remaining activity at 1.25 µM ([1]; Well no.=6821, low concentration screen) of 100% and a remaining activity at 3.75 µM ([2]; Well no.=6821, high concentration screen) of 101%.

In the case of `O=C(O)[C@@H]1C[C@@H](O)CN1` [L-Hydroxyproline], the remaining activity at 1.25 µM ([1]; Well no.=6735, low concentration screen) is reported as 101%, the remaining activity at 1.25 µM ([1]; Well no.=8744, low concentration screen) is reported as 94.2% and the remaining activity at 3.75 µM ([2]; Well no.=6735, high concentration screen) is reported as 102%. For the same compound, the remaining activity at 3.75 µM ([2]; Well no.=8744, high concentration screen) was 91.4%.

With `CN1[C@@H]2CC[C@H]1C[C@@H](OC(=O)[C@H](CO)c1ccccc1)C2` [L-Hyoscyamine] the remaining activity at 1.25 µM ([1]; Well no.=424, low concentration screen) was 99.2%, the remaining activity at 1.25 µM ([1]; Well no.=6801, low concentration screen) was 103% and the remaining activity at 3.75 µM ([2]; Well no.=424, high concentration screen) was 96.8%. For the same compound, the remaining activity at 3.75 µM ([2]; Well no.=6801, high concentration screen) was 99.4%.
